Measured values taken from patent US20240287076A1, “COMPOUNDS FOR TARGETING DEGRADATION OF BRUTON'S TYROSINE KINASE” (BIOGEN MA INC., priority 2021, published 2024).

Target: T1, BTK (Homo sapiens, UniProt Q06187)
T1 construct: The GM01501.3 cell line endogenously expresses BTK with a HiBiT fusion tag via CRISPR knock-in at its C-terminal region; endogenous in cells; host or cells: GM01501.3 (GM01501 cells engineered by CRISPR knock-in of HiBiT at the BTK locus)
Test: BTK degradation assay using the HiBiT Method (Nano-Glo HiBiT Lytic Assay, GM01501.3 cells)
Assay type: cell-based
Conditions: HiBiT Degradation on GM01501.3 BTK @ 6 hours
Summary of the method: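 Degradation read-out: HiBiT luminescence after lytic reagent addition, giving DC50. Compounds dosed from 10 μM in 11 half-log steps (duplicate) onto GM01501.3 cells, whose endogenous BTK carries a C-terminal HiBiT knock-in tag; 6 h exposure, 37 °C, 5% CO2.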

T1 sequence (Q06187 whole entry, the tested form may be a part): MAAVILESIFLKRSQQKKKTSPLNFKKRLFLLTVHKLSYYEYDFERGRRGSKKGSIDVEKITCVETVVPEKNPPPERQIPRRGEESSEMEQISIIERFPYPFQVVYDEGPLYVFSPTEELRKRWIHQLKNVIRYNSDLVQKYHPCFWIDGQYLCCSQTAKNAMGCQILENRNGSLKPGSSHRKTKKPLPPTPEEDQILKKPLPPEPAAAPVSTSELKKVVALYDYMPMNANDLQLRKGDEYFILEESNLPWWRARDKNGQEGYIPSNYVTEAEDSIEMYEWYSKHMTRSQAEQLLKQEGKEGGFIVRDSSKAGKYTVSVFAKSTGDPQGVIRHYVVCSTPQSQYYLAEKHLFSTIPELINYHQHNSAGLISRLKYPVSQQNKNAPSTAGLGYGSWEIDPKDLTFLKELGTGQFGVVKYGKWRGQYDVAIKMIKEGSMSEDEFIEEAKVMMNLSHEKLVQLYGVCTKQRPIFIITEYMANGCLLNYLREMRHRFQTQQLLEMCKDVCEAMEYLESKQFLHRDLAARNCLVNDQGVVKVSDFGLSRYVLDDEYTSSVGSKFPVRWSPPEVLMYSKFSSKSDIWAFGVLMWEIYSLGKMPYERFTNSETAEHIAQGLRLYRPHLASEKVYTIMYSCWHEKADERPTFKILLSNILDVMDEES

DC50 | Compound
< 100 nM | Cc1cc(-c2ncnn3cc(CCCCN4CCC(c5ccc6c(N7CCC(=O)NC7=O)nn(C)c6c5)C(F)(F)C4)cc23)ccc1CNC(=O)c1noc(C(C)(C)C)n1 (stereo not shown) [Example 283, 5-(tert-butyl)-N-(4-(6-(4-(4-(3-(2,4-dioxotetrahydropyrimidin-1(2H)-yl)-1-methyl-1H-indazol-6-yl)-3,3-difluoropiperidin-1-yl)butyl)pyrrolo[2,1-f][1,2,4]triazin-4-yl)-2-methylbenzyl)-1,2,4-oxadiazole-3-carboxamide]
< 100 nM | Cc1cc(-c2ncnn3cc(OCCN4CCC(c5ccc(NC6CCC(=O)NC6=O)cc5)CC4)cc23)ccc1CNC(=O)c1noc(C(C)(C)C)n1 (stereo not shown) [Example 288, 5-(tert-butyl)-N-(4-(6-(2-(4-(4-((2,6-dioxopiperidin-3-yl)amino)phenyl)piperidin-1-yl)ethoxy)pyrrolo[2,1-f][1,2,4]triazin-4-yl)-2-methylbenzyl)-1,2,4-oxadiazole-3-carboxamide]
< 100 nM | Cn1nc(N2CCC(=O)NC2=O)c2ccc(C3CCN(CCCCc4cc5c(-c6ccc7c(c6)OCCCC7NC(=O)c6noc(C(C)(C)C)n6)ncnn5c4)CC3)cc21 (stereo not shown) [Example 290, 5-(tert-butyl)-N-(8-(6-(4-(4-(3-(2,4-dioxotetrahydropyrimidin-1(2H)-yl)-1-methyl-1H-indazol-6-yl)piperidin-1-yl)butyl)pyrrolo[2,1-f][1,2,4]triazin-4-yl)-2,3,4,5-tetrahydrobenzo[b]oxepin-5-yl)-1,2,4-oxadiazole-3-carboxamide]
100 to 500 nM | Cc1cc(-c2ncnn3cc(C#CCCN4CCC(c5ccc(C6CCC(=O)NC6=O)cc5)CC4)cc23)ccc1CNC(=O)c1noc(C(C)(C)C)n1 (stereo not shown) [Example 291, 5-(tert-butyl)-N-(4-(6-(4-(4-(4-(2,6-dioxopiperidin-3-yl)phenyl)piperidin-1-yl)but-1-yn-1-yl)pyrrolo[2,1-f] [1,2,4]triazin-4-yl)-2-methylbenzyl)-1,2,4-oxadiazole-3-carboxamide]
< 100 nM | Cn1nc(N2CCC(=O)NC2=O)c2ccc(C3CCN(CCCOc4cc5c(-c6ccc7c(c6)OCCCC7NC(=O)c6noc(C(C)(C)C)n6)ncnn5c4)CC3)cc21 (stereo not shown) [Example 294, 5-(tert-butyl)-N-(8-(6-(3-(4-(3-(2,4-dioxotetrahydropyrimidin-1(2H)-yl)-1-methyl-1H-indazol-6-yl)piperidin-1-yl)propoxy)pyrrolo[2,1-f] [1,2,4]triazin-4-yl)-2,3,4,5-tetrahydrobenzo[b]oxepin-5-yl)-1,2,4-oxadiazole-3-carboxamide]
< 100 nM | Cc1cc(-c2ncnn3cc(OC[C@@H](F)CN4CCC(c5ccc6c(N7CCC(=O)NC7=O)nn(C)c6c5)CC4)cc23)ccc1CNC(=O)c1noc(C(C)(C)C)n1 [Example 295, (S)-5-(tert-butyl)-N-(4-(6-(3-(4-(3-(2,4-dioxotetrahydropyrimidin-1(2H)-yl)-1-methyl-1H-indazol-6-yl)piperidin-1-yl)-2-fluoropropoxy)pyrrolo[2,1-f][1,2,4]triazin-4-yl)-2-methylbenzyl)-1,2,4-oxadiazole-3-carboxamide]
< 100 nM | Cc1cc(-c2ncnn3cc(OC[C@@H](F)CN4CCN(c5ccc(NC6CCC(=O)NC6=O)cn5)CC4)cc23)ccc1CNC(=O)c1noc(C(C)(C)C)n1 (stereo partly drawn) [Example 296, 5-(tert-butyl)-N-(4-(6-((2S)-3-(4-(5-((2,6-dioxopiperidin-3-yl)amino)pyridin-2-yl)piperazin-1-yl)-2-fluoropropoxy)pyrrolo[2,1-f][1,2,4]triazin-4-yl)-2-methylbenzyl)-1,2,4-oxadiazole-3-carboxamide]
< 100 nM | Cc1cc(-c2ncnn3cc(N4CCN(CCCCc5ccc6c(N7CCC(=O)NC7=O)nn(C)c6c5)CC4)cc23)ccc1CNC(=O)c1noc(C(C)(C)C)n1 [Example 297, 5-(tert-butyl)-N-(4-(6-(4-(4-(3-(2,4-dioxotetrahydropyrimidin-1(2H)-yl)-1-methyl-1H-indazol-6-yl)butyl)piperazin-1-yl)pyrrolo[2,1-f][1,2,4]triazin-4-yl)-2-methylbenzyl)-1,2,4-oxadiazole-3-carboxamide]
< 100 nM | Cc1cc(-c2ncnn3cc(-c4cnn(CCN5CCN(c6ccc(C7CCC(=O)NC7=O)cn6)CC5)c4)cc23)ccc1CNC(=O)c1noc(C(C)(C)C)n1 (stereo not shown) [Example 298, 5-(tert-butyl)-N-(4-(6-(1-(2-(4-(5-(2,6-dioxopiperidin-3-yl)pyridin-2-yl)piperazin-1-yl)ethyl)-1H-pyrazol-4-yl)pyrrolo[2,1-f] [1,2,4]triazin-4-yl)-2-methylbenzyl)-1,2,4-oxadiazole-3-carboxamide]
< 100 nM | Cc1cc(-c2ncnn3cc(-c4cnn(CCN5CCC(c6ccc7c(C8CCC(=O)NC8=O)nn(C)c7c6)CC5)c4)cc23)ccc1CNC(=O)c1noc(C(C)(C)C)n1 (stereo not shown) [Example 299, 5-(tert-butyl)-N-(4-(6-(1-(2-(4-(3-(2,6-dioxopiperidin-3-yl)-1-methyl-1H-indazol-6-yl)piperidin-1-yl)ethyl)-1H-pyrazol-4-yl)pyrrolo[2,1-f][1,2,4]triazin-4-yl)-2-methylbenzyl)-1,2,4-oxadiazole-3-carboxamide]
< 100 nM | Cc1cc(-c2ccnc3cc(CCCCN4CCC(c5ccc6c(N7CCC(=O)NC7=O)nn(C)c6c5)CC4)nn23)ccc1CNC(=O)c1noc(C(C)(C)C)n1 [Example 300, 5-(tert-butyl)-N-(4-(2-(4-(4-(3-(2,4-dioxotetrahydropyrimidin-1(2H)-yl)-1-methyl-1H-indazol-6-yl)piperidin-1-yl)butyl)pyrazolo[1,5-a]pyrimidin-7-yl)-2-methylbenzyl)-1,2,4-oxadiazole-3-carboxamide]

Compound | DC50
Cc1cc(-c2ncnn3cc(OC4CC(CN5CCC(c6ccc7c(N8CCC(=O)NC8=O)nn(C)c7c6)CC5)C4)cc23)ccc1CNC(=O)c1noc(C(C)(C)C)n1 (stereo not shown) [Example 289, 5-(tert-butyl)-N-(4-(6-(3-((4-(3-(2,4-dioxotetrahydropyrimidin-1(2H)-yl)-1-methyl-1H-indazol-6-yl)piperidin-1-yl)methyl)cyclobutoxy)pyrrolo[2,1-f][1,2,4]triazin-4-yl)-2-methylbenzyl)-1,2,4-oxadiazole-3-carboxamide] | < 100 nM
Cc1cc(-c2ncnn3cc(OCCCN4CCC(c5ccc6c(N7CCC(=O)NC7=O)nn(C)c6c5)CC4)cc23)ccc1CNC(=O)N1CC(OC(C)(C)C)C1 [Example 293, 3-(tert-butoxy)-N-(4-(6-(3-(4-(3-(2,4-dioxotetrahydropyrimidin-1(2H)-yl)-1-methyl-1H-indazol-6-yl)piperidin-1-yl)propoxy)pyrrolo[2,1-f][1,2,4]triazin-4-yl)-2-methylbenzyl)azetidine-1-carboxamide] | < 100 nM
